Measured values reported in patent US20230150974A1 (Foghorn Therapeutics Inc., priority 2020, published 2023).

Columns and labels:
HiBiT-BRM = biological target: T1, HiBiT-BRM (Homo sapiens, UniProt P51531); test: HiBiT-BRM cell-based degradation assay (Nano-Glo HiBiT Lytic Detection); details: HeLa cells expressing HiBiT-BRM, 24 h; for DC50: read-out: BRM HiBit Degradation IC50
T1 construct: expressed in transfected cells
Method in brief: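 Luminescence from HiBiT–LgBiT complementation in lysates of a stable HiBiT-BRM HeLa line measured after 24 h compound exposure. Degradation expressed as percent relative to DMSO-treated cells and cells given 2 μM of a known BRM/BRG1 degrader.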

HiBit-BRG1 = biological target: T2, HiBit-BRG1 (Homo sapiens, UniProt P51532); test: HiBit-BRG1 cell-based degradation assay (Nano-Glo HiBiT Lytic Detection); details: HeLa cells expressing HiBit-BRG1 and LgBit, 24 h; for DC50: read-out: BRG1 HiBit Degradation IC50; for Dmax: read-out: BRG1 HiBit Degradation Maximum (%)
T2 construct: expressed in transfected cells
T2 sequence (P51532 whole entry): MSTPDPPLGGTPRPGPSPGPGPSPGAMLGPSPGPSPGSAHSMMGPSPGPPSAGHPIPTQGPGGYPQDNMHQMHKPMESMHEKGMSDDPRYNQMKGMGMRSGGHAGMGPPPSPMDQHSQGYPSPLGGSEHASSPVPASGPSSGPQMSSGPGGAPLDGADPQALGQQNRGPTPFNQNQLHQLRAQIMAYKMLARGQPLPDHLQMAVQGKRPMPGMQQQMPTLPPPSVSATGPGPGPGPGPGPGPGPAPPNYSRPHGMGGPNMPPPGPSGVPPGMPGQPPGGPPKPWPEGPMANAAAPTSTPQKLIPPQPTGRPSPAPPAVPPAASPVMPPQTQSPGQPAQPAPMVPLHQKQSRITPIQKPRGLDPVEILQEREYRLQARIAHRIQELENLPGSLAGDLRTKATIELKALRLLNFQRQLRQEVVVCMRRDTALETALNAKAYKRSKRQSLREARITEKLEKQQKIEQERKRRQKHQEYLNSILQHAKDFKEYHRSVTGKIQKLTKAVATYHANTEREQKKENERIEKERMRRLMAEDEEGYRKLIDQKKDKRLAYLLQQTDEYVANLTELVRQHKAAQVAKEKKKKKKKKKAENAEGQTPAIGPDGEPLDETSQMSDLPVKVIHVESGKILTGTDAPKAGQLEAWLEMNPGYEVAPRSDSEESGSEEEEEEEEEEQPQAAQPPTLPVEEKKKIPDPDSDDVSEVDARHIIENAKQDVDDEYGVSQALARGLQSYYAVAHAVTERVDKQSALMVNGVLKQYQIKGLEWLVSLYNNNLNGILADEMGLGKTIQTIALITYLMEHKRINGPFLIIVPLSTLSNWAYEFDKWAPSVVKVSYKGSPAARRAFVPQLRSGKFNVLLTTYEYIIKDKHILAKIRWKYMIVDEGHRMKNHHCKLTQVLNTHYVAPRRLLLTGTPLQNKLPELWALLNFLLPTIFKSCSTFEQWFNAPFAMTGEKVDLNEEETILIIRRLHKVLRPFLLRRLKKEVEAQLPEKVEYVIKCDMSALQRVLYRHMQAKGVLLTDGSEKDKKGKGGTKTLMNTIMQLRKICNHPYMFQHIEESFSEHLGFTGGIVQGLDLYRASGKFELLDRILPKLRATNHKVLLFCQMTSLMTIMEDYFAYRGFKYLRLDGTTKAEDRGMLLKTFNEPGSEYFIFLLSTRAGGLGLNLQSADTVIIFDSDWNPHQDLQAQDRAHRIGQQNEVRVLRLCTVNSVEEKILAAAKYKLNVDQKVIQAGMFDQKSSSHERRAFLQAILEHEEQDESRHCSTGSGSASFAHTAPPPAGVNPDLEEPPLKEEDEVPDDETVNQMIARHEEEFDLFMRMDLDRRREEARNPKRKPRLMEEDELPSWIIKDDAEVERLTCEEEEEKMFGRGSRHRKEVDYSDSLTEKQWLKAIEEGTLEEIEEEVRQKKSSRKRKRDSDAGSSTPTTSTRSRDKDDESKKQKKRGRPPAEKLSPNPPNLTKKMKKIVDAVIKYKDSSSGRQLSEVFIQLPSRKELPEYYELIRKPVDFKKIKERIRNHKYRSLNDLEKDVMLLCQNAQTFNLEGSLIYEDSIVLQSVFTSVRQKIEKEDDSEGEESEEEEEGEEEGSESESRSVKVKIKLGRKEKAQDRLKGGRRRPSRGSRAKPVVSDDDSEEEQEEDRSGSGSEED
Method in brief: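 Stable HeLa line co-expressing HiBit-BRG1 and LgBit, 5000 cells/well, treated 24 h in a tissue culture incubator. Lysed with Nano-Glo HiBiT lytic reagent, luminescence read. % degradation normalized to DMSO (high control) and 2 μM reference BRM/BRG1 degrader (low control).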

T1 sequence (P51531 whole entry): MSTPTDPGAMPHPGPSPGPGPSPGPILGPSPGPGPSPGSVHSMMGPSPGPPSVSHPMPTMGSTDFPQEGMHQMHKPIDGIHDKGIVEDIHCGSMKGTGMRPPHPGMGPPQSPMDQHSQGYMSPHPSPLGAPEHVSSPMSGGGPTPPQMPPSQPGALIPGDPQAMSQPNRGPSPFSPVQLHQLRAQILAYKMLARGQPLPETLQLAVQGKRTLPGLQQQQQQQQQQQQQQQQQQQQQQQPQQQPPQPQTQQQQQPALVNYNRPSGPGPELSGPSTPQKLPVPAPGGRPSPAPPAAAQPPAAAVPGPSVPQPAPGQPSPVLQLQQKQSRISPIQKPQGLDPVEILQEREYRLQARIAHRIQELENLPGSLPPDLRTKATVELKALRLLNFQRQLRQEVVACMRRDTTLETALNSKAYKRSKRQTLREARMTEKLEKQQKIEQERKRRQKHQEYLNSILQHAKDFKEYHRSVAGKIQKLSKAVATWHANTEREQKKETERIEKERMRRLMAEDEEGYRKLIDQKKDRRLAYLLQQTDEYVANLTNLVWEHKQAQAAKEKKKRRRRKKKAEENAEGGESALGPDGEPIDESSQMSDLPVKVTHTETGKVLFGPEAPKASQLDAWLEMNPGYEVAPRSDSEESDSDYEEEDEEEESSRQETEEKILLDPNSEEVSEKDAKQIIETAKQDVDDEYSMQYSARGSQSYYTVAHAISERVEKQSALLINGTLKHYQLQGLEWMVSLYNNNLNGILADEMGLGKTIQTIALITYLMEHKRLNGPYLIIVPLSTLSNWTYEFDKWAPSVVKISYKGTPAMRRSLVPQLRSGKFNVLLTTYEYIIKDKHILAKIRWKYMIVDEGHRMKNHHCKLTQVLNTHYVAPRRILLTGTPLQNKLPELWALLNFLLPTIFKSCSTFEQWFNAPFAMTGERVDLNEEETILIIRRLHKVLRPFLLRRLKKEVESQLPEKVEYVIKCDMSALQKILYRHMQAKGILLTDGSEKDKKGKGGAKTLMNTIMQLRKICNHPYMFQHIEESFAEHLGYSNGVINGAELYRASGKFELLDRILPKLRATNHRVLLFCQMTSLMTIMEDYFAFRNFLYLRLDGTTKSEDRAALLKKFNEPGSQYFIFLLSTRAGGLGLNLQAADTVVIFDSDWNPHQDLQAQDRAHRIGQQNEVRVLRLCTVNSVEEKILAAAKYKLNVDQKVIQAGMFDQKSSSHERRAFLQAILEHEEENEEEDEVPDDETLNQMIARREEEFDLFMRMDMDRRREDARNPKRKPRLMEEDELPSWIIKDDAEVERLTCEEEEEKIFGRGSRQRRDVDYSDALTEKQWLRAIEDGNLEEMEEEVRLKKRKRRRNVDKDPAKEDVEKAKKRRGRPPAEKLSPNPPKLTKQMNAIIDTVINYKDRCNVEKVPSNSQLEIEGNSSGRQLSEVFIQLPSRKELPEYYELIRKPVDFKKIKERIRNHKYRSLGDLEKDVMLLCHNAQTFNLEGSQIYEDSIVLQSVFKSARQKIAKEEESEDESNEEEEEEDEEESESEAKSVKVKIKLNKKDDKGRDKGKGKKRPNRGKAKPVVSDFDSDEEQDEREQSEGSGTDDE

Compound	BRM HiBit Degradation Maximum (%) (HiBiT-BRM)	DC50 (HiBiT-BRM) [µM]	DC50 (HiBit-BRG1) [µM]	Dmax (HiBit-BRG1) [%]
Nc1nnc(-c2ccccc2O)cc1N1CCN(CC(=O)NC2CCN(CCOc3ccc4c(c3)C(=O)N(C3CCC(=O)NC3=O)C4=O)CC2)CC1 (stereo not shown) [Compound 82, 2-[4-[3-amino-6-(2-hydroxyphenyl)pyridazin-4-yl]piperazin-1-yl]-N-[1-(2-[[2-(2,6-dioxopiperidin-3-yl)-1,3-dioxoisoindol-5-yl]oxy]ethyl)piperidin-4-yl]acetamide]	C (“C” indicates maximum degradation <50%)	> 1	> 1	< 50
Nc1nnc(-c2ccccc2O)cc1N1CCN(CC(=O)NCCS(=O)(=O)CCNc2cccc3c2C(=O)N(C2CCC(=O)NC2=O)C3=O)CC1 (stereo not shown) [Compound 79, 2-[4-[3-amino-6-(2-hydroxyphenyl)pyridazin-4-yl]piperazin-1-yl]-N-[2-(2-[[2-(2,6-dioxopiperidin-3-yl)-1,3-dioxoisoindol-4-yl]amino]ethanesulfonyl)ethyl]acetamide]	C (“C” indicates maximum degradation <50%)	> 1	> 1	< 50
Cc1ncsc1-c1ccc([C@H](C)NC(=O)[C@@H]2C[C@@H](O)CN2C(=O)[C@@H](NC(=O)CCCCCCCCCCN2C[C@@H]3CN(Cc4ccc(CCOc5cc(-c6ccccc6O)nnc5N)cc4)C[C@@H]3C2)C(C)(C)C)cc1 [Compound 264, (2S,4R)-1-((2S)-2-(11-(5-(4-(2-((3-amino-6-(2-hydroxyphenyl)pyridazin-4-yl)oxy)ethyl)benzyl)hexahydropyrrolo[3,4-c]pyrrol-2(1H)-yl)undecanamido)-3,3-dimethylbutanoyl)-4-hydroxy-N-((S)-1-(4-(4-methylthiazol-5-yl)phenyl)ethyl)pyrrolidine-2-carboxamide]	A (“A” indicates maximum degradation ≥75%)	> 0.01	> 0.1	> 50
Nc1nnc(-c2ccccc2O)cc1OCCc1ccc(C(=O)NCCCCCCCCNc2cccc3c2CN(C2CCC(=O)NC2=O)C3=O)cc1 (stereo not shown) [Compound 56]	C (“C” indicates maximum degradation <50%)	> 1	> 1	< 50
